{
  "source": "patent US20220088131A1",
  "about": "“COMPOSITIONS AND METHODS RELATING TO C5L2” (King's College London, priority 2013, published 2022)",
  "key": {"human CD4+ T cells [1]": {"tested_on": "human CD4+ T cells", "test": "Rescue of CPM inhibitor-mediated increase in IFN-γ production by CD4+ T cells", "format": "cell-based", "details": "24 h post activation, FIG. 13", "description": "FIG. 13. Serum-purified C5adesArg can partially rescue carboxypeptidase M inhibitor (CPM)-mediated increase in IFN-γ production by CD4+ T cells. Purified human CD4+ T cells were activated with depicted immobilized antibodies in media, or in media with the addition of a CPM inhibitor with or without either serum-purified C5a or C5adesArg. IFN-γ production by cells was assessed 24 h post activation using the CBA Cytokine Bead Array ([…]). Data (±SD) are from three experiments (n=3). *, p<0.05; (student's paired t-test).\nThe ability of serum-purified C5adesArg to rescue carboxypeptidase M inhibitor (CPM)-mediated increase in IFN-γ production by CD4+ T cells was determined. Purified human CD4^+ T cells were activated in media, or in media with the addition of a CPM inhibitor with or without either serum-purified C5a or C5adesArg. IFN-γ production by cells was assessed 24 h post activation using the CBA Cytokine Bead Array. […] However, the increase in IFN-γ production was markedly lower when C5adesArg was present than when C5a was present and also markedly lower than in the absence of both C5a and C5adesArg. Addition of purified C5adesArg but not C5a reduced CPM inhibitor-induced increase in IFN-γ by about 25%."}, "human CD4+ T cells [2]": {"tested_on": "human CD4+ T cells", "test": "Effect of carboxypeptidase M inhibition on cytokine secretion in CD4+ T cells (CBA)", "format": "cell-based", "details": "resting and activated CD4+ T cells, 36 hours", "description": "FIG. 12A. Effect of carboxypeptidase M (CPM) inhibition on cytokine secretion in resting and activated CD4+ T cells. CD4+ T cells (2.5×10^5) were activated as depicted for 36 hours and supernatants assayed for Th1/2/17 cytokines using CBA. Cells were treated with either C5aR/C5L2 double receptor antagonist (dRA; 7 μM), C5aR antagonist (PMX53; 10 μM), with or without a carboxypetidase M inhibitor (CPMi) or activated in media without any addition as a first control (non-treated, NT) or with a control peptide that lacks activity towards C5a and C5L2 as a second control (Control). The effect of antagonist treatment was assessed in non-activated T cells (white bars), as well as T cells activated with 0.25 μg plate-bound anti-CD3 (light grey bars), anti-CD3/28 (dark grey bars) or anti-CD3/46 (black bars). Data represent n=4 with standard error of the mean indicated. Bar graphs showing effect of CPMi on secretion of IL-17, IFN-γ, and TNFα by resting and activated CD4+ T cells. FIG. 12B. […]\nCD4^+ T cells and CD14^+ monocytes were cultured in medium (RPMI-1640 medium (Sigma-Alich, Suffolk, UK), supplemented with 1% GlutaMAX, 1% penicillin/streptomycin (both Life Technologies, Paisley, UK) and 10% FBS (HyClone Laboratories, Logan, Utah). In the case of T cells media was supplemented with 25 U/ml IL-2 (Sigma-Aldrich; or with concentrations indicated in figure legends). CD4^+ T cells (2.5×10^5) were cultured alone or together with plate-bound anti-CD3 (OKT3, Biolegend, San Diego, Calif.), anti-CD3 and anti-CD28 (CD28.2, BD Pharmingen, San Jose, Calif.) or anti-CD3 and anti-CD46 (TRA-2-10, provided by John Atkinson, Washington University, St Louis, Mo.) all immobilised onto 48-well plates at concentrations of 2 μg/ml PBS overnight at 4° C. […] Cells were cultured at 37° C. and 5% CO2 and cytokine secetion assessed at 12, 24 or 36 h post activation.\nThe Th1/Th2/Th17 Cytometric Bead Array (BD Bioscience) was used to quantify cytokine production by CD4^+ T cells and monocytes following 12 or 36 h culture under distinct activation conditions. […]"}, "CD14+ monocytes": {"tested_on": "CD14+ monocytes", "test": "Pro-inflammatory cytokine release by monocytes (CBA)", "format": "cell-based, human", "details": "resting and Flagellin-stimulated monocytes; 36 hours; dRA 7 μM, PMX53 10 μM; FIG. 9", "description": "FIG. 9. C5L2 blockade induces pro-inflammatory cytokine release by human monocytes. CD14+ monocytes (2.5×10^5) were cultured for 36 hours and supernatants assayed for cytokines using CBA. Monocytes were treated with either C5aR/C5L2 double receptor antagonist (dRA; 7 μM), C5aR antagonist (PMX53; 10 μM) or control (non-treated). The effect of antagonist treatment was assessed on non-activated monocytes (white bars) as well as monocytes activated with 1 μg/ml of either Flagellin (light grey bars) or 100 ng/ml LPS (dark grey bars). Data represent n=4 experiments with SEM indicated. Statistical testing was not conducted as insufficient experimental repeats were performed to assume normal distribution. Asterisk denotes that the median value was 10,400 pg/ml.\nHuman blood was obtained from healthy volunteers following ethical guidelines set by Kings College London (KCL) ethics committee (REC: 09/H0804/72). PBMCs were isolated by density centrifugation (Ficoll-Paque PLUS; GE healthcare, Uppsala, Sweden). […]\nThe Th1/Th2/Th17 Cytometric Bead Array (BD Bioscience) was used to quantify cytokine production by CD4^+ T cells and monocytes following 12 or 36 h culture under distinct activation conditions. […] IL-1β amounts secreted into the cell media were measured by ELISA, according to the manufacturer's protocol (R&D Systems, Abingdon, UK)."}, "human CD4+ T cells [3]": {"tested_on": "human CD4+ T cells", "test": "Cytokine secretion by CD4+ T cells with C5aR or C5aR/C5L2 blockade (Cytometric Bead Array)", "format": "cell-based", "description": "Human blood was obtained from healthy volunteers following ethical guidelines set by Kings College London (KCL) ethics committee (REC: 09/H0804/72). PBMCs were isolated by density centrifugation (Ficoll-Paque PLUS; GE healthcare, Uppsala, Sweden). Cell subsets were isolated by magnetic separation following manufacturer's instructions (Miltenyi Biotec, Auburn, Calif.). Monocytes were positively selected using anti-CD14 microbeads (average purity 97%) and CD4^+ T cells were isolated from the CD14-negative fraction using anti-CD4 microbeads (average purity 98%). Alternatively, CD4^+ T cells were isolated from purified PBMCs by cell sorting after staining with antibodies to CD14 and CD4 and CD3.\nCD4^+ T cells and CD14^+ monocytes were cultured in medium (RPMI-1640 medium (Sigma-Alich, Suffolk, UK), supplemented with 1% GlutaMAX, 1% penicillin/streptomycin (both Life Technologies, Paisley, UK) and 10% FBS (HyClone Laboratories, Logan, Utah). In the case of T cells media was supplemented with 25 U/ml IL-2 (Sigma-Aldrich; or with concentrations indicated in figure legends). CD4^+ T cells (2.5×10^5) were cultured alone or together with plate-bound anti-CD3 (OKT3, Biolegend, San Diego, Calif.), anti-CD3 and anti-CD28 (CD28.2, BD Pharmingen, San Jose, Calif.) or anti-CD3 and anti-CD46 (TRA-2-10, provided by John Atkinson, Washington University, St Louis, Mo.) all immobilised onto 48-well plates at concentrations of 2 μg/ml PBS overnight at 4° C. Monocytes (2.5×10^5) were cultured either alone or in the presence of LPS or Flagellin (1 μg/ml). […] Cells were cultured at 37° C. and 5% CO2 and cytokine secetion assessed at 12, 24 or 36 h post activation.\nThe Th1/Th2/Th17 Cytometric Bead Array (BD Bioscience) was used to quantify cytokine production by CD4^+ T cells and monocytes following 12 or 36 h culture under distinct activation conditions. Samples were processed following manufacturer's instructions and acquired using BD FACScan. IL-1β amounts secreted into the cell media were measured by ELISA, according to the manufacturer's protocol (R&D Systems, Abingdon, UK)."}, "[4]": {"details": "activated CD4+ T cells, dRA 7 μM, PMX53 10 μM, FIG. 6"}},
  "data": [
    {"molecule": "CPMi: carboxypetidase (CP) A and B inhibitor, which also effectively inhibits CPM (Sigma CO279; 25 nM) (QQHADPICNKPCKTHDDCSGAWFCQACWNSARTCGPYVG)", "values": [
      {"measurement": "IFN-γ production", "setting": "human CD4+ T cells [1]; all activation conditions", "value": "increased IFN-γ production"},
      {"measurement": "effect on IFN-γ secretion", "setting": "human CD4+ T cells [2]; FIG. 12A", "value": "may also be present"},
      {"measurement": "secretion of IL-17", "setting": "human CD4+ T cells [2]; control cells, untreated cells and with C5aR antagonist, FIG. 12A", "value": "increased secretion"},
      {"measurement": "secretion of IL-6", "setting": "human CD4+ T cells [2]; control cells, untreated cells and with C5aR antagonist, FIG. 12B", "value": "increased secretion"}
    ]},
    {"molecule": "PMX53 [reference compound]", "values": [
      {"measurement": "secretion of IL-6", "setting": "CD14+ monocytes", "value": "no effect"},
      {"measurement": "secretion of IFN-γ", "setting": "human CD4+ T cells [3]; [4]", "value": "no effect"},
      {"measurement": "secretion of IL-17", "setting": "human CD4+ T cells [3]; [4]", "value": "no effect"},
      {"measurement": "secretion of IL-6", "setting": "human CD4+ T cells [3]; resting and activated CD4+ T cells, FIG. 7A", "value": "no effect"}
    ]},
    {"molecule": "C5adesArg: serum-purified C5a lacking the C-terminal Arg; naturally occurring agonist of C5L2 (protein) TLQKKIEEIAAKYKHSVVKKCCYDGACVNNDETCEQRAARISLGPRCIKAFTECCVVASQLRANISHKDMQLG", "values": [
      {"measurement": "reduction of CPM inhibitor-induced increase in IFN-γ", "setting": "human CD4+ T cells [1]; serum-purified protein added with CPM inhibitor", "value": "about 25%"}
    ]}
  ]
}
